According to the CheMixHub viscosity set:
Several values for one entry are separate records, joined by “and”; a condition that tells them apart may be missing. Identical values can stand only once.

Experiment: xn = mol fraction of the nth substance listed

CCO + O
Conditions | viscosity
293.15 K, 100 kPa, x1 = 0.3 | 2.81 mPa·s
293.15 K, 100 kPa, x1 = 0.4 | 2.616 mPa·s
293.15 K, 101 kPa, x2 = 0.25 | 2.385 mPa·s
293.15 K, 101 kPa, x2 = 0.75 | 2.114 mPa·s
293.15 K, 101.33 kPa, x1 = 0.04164 | 1.564 mPa·s
293.15 K, 101.33 kPa, x1 = 0.2068 | 2.942 mPa·s
293.15 K, 101.33 kPa, x1 = 0.235 | 2.947 mPa·s
293.15 K, 101.33 kPa, x1 = 0.2499 | 2.922 mPa·s
293.15 K, 101.33 kPa, x1 = 0.3697 | 2.694 mPa·s
293.15 K, 101.33 kPa, x1 = 0.4771 | 2.381 mPa·s
293.15 K, 101.33 kPa, x1 = 0.61 | 2.036 mPa·s
293.15 K, 101.33 kPa, x1 = 0.7787 | 1.643 mPa·s
293.15 K, 101.33 kPa, x2 = 0.0102 | 1.261 mPa·s
298 K, 101 kPa, x1 = 0.09 | 1.81 mPa·s
298 K, 101 kPa, x1 = 0.1 | 2.409 mPa·s
298 K, 101 kPa, x1 = 0.4 | 2.234 mPa·s
298 K, 101 kPa, x1 = 0.5 | 2.013 mPa·s
298.15 K, 100 kPa, x1 = 0.2 | 2.335 mPa·s
298.15 K, 100 kPa, x1 = 0.4 | 2.148 mPa·s
298.15 K, 100 kPa, x1 = 0.78 | 1.423 mPa·s
298.15 K, 101 kPa, x1 = 0.0112 | 0.991 mPa·s
298.15 K, 101 kPa, x1 = 0.0129 | 1.007 mPa·s
298.15 K, 101 kPa, x1 = 0.0197 | 1.072 mPa·s
298.15 K, 101 kPa, x1 = 0.025 | 1.127 mPa·s
298.15 K, 101 kPa, x1 = 0.0289 | 1.166 mPa·s
298.15 K, 101 kPa, x1 = 0.0348 | 1.225 mPa·s
298.15 K, 101 kPa, x1 = 0.0439 | 1.322 mPa·s
298.15 K, 101 kPa, x1 = 0.0515 | 1.405 mPa·s
298.15 K, 101 kPa, x1 = 0.0677 | 1.576 mPa·s
298.15 K, 101 kPa, x1 = 0.1003 | 1.889 mPa·s
298.15 K, 101 kPa, x1 = 0.1025 | 1.91 mPa·s
298.15 K, 101 kPa, x1 = 0.1139 | 2 mPa·s
298.15 K, 101 kPa, x1 = 0.1302 | 2.109 mPa·s
298.15 K, 101 kPa, x1 = 0.14 | 2.1 mPa·s
298.15 K, 101 kPa, x1 = 0.1597 | 2.247 mPa·s
298.15 K, 101 kPa, x1 = 0.1837 | 2.322 mPa·s
298.15 K, 101 kPa, x1 = 0.28 | 2.25 mPa·s
298.15 K, 101 kPa, x1 = 0.3515 | 2.248 mPa·s
298.15 K, 101 kPa, x1 = 0.37 | 2.14 mPa·s
298.15 K, 101 kPa, x1 = 0.4801 | 1.995 mPa·s
298.15 K, 101 kPa, x1 = 0.613 | 1.725 mPa·s
298.15 K, 101 kPa, x1 = 0.6923 | 1.58 mPa·s
298.15 K, 101 kPa, x1 = 0.8006 | 1.401 mPa·s
298.15 K, 101 kPa, x1 = 0.8018 | 1.399 mPa·s
298.15 K, 101 kPa, x1 = 0.905 | 1.239 mPa·s
298.15 K, 101 kPa, x1 = 0.9518 | 1.167 mPa·s
298.15 K, 101 kPa, x2 = 0.25 | 2.046 mPa·s
298.15 K, 101 kPa, x2 = 0.5 | 2.322 mPa·s
298.15 K, 101 kPa, x2 = 0.75 | 1.778 mPa·s
298.15 K, 101 kPa, x2 = 0.9584 | 1.108 mPa·s
298.15 K, 101.33 kPa, x1 = 0.0144 | 0.96 mPa·s
298.15 K, 101.33 kPa, x1 = 0.0205 | 1.013 mPa·s
298.15 K, 101.33 kPa, x1 = 0.1135 | 1.851 mPa·s
298.15 K, 101.33 kPa, x1 = 0.1414 | 2.129 mPa·s
298.15 K, 101.33 kPa, x1 = 0.1893 | 2.29 mPa·s
298.15 K, 101.33 kPa, x1 = 0.2151 | 2.327 mPa·s
298.15 K, 101.33 kPa, x1 = 0.3285 | 2.273 mPa·s
298.15 K, 101.33 kPa, x1 = 0.3308 | 2.273 mPa·s
298.15 K, 101.33 kPa, x1 = 0.3461 | 2.247 mPa·s
298.15 K, 101.33 kPa, x1 = 0.3745 | 2.226 mPa·s
298.15 K, 101.33 kPa, x1 = 0.3801 | 2.212 mPa·s
298.15 K, 101.33 kPa, x1 = 0.4246 | 2.104 mPa·s
298.15 K, 101.33 kPa, x1 = 0.4299 | 2.112 mPa·s
298.15 K, 101.33 kPa, x1 = 0.4836 | 1.995 mPa·s
298.2 K, 100 kPa, x2 = 0.387 | 1.854 mPa·s
298.2 K, 100 kPa, x2 = 0.399 | 1.676 mPa·s
298.2 K, 100 kPa, x2 = 0.655 | 2.18 mPa·s
298.2 K, 100 kPa, x2 = 0.674 | 2.18 mPa·s
300.65 K, 101 kPa, x1 = 0.86 | 1.1 mPa·s
303.15 K, 101 kPa, x2 = 0.25 | 1.767 mPa·s
303.15 K, 101 kPa, x2 = 0.5 | 1.961 mPa·s
303.15 K, 101.33 kPa, x1 = 0.04164 | 1.179 mPa·s
303.15 K, 101.33 kPa, x1 = 0.08905 | 1.574 mPa·s
303.15 K, 101.33 kPa, x1 = 0.1435 | 1.9 mPa·s
303.15 K, 101.33 kPa, x1 = 0.2499 | 2.061 mPa·s
303.15 K, 101.33 kPa, x1 = 0.2652 | 2.056 mPa·s
303.15 K, 101.33 kPa, x1 = 0.2811 | 2.068 mPa·s
303.15 K, 101.33 kPa, x1 = 0.4771 | 1.79 mPa·s
303.15 K, 101.33 kPa, x1 = 0.61 | 1.567 mPa·s
303.15 K, 101.33 kPa, x1 = 0.7787 | 1.311 mPa·s
303.15 K, 101.33 kPa, x2 = 0.0102 | 1.035 mPa·s
308 K, 101 kPa, x1 = 0.09 | 1.343 mPa·s
308.15 K, 101 kPa, x2 = 0.25 | 1.54 mPa·s
308.15 K, 101 kPa, x2 = 0.5 | 1.676 mPa·s
308.15 K, 101 kPa, x2 = 0.9584 | 0.939 mPa·s
313.15 K, 101 kPa, x2 = 0.25 | 1.349 mPa·s
313.15 K, 101 kPa, x2 = 0.5 | 1.448 mPa·s
313.15 K, 101.33 kPa, x1 = 0.04164 | 0.909 mPa·s
313.15 K, 101.33 kPa, x1 = 0.1435 | 1.383 mPa·s
313.15 K, 101.33 kPa, x1 = 0.2068 | 1.494 mPa·s
313.15 K, 101.33 kPa, x1 = 0.2499 | 1.509 mPa·s
313.15 K, 101.33 kPa, x1 = 0.2652 | 1.514 mPa·s
313.15 K, 101.33 kPa, x1 = 0.2811 | 1.529 mPa·s
313.15 K, 101.33 kPa, x1 = 0.61 | 1.223 mPa·s
313.15 K, 101.33 kPa, x1 = 0.7787 | 1.05 mPa·s
317.15 K, 101 kPa, x1 = 0.86 | 0.779 mPa·s
318.15 K, 101 kPa, x2 = 0.25 | 1.185 mPa·s
318.15 K, 101 kPa, x2 = 0.5 | 1.255 mPa·s
318.15 K, 101 kPa, x2 = 0.9413 | 0.8181 mPa·s
323.15 K, 100 kPa, x1 = 0.2 | 1.113 mPa·s and 1.08 mPa·s
323.15 K, 100 kPa, x1 = 0.3 | 1.108 mPa·s
323.15 K, 100 kPa, x1 = 0.4 | 1.113 mPa·s and 1.072 mPa·s
323.15 K, 100 kPa, x1 = 0.6 | 0.9548 mPa·s and 0.9408 mPa·s
323.15 K, 100 kPa, x1 = 0.8 | 0.8101 mPa·s
323.15 K, 101 kPa, x2 = 0.25 | 1.055 mPa·s
323.15 K, 101 kPa, x2 = 0.5 | 1.102 mPa·s
323.15 K, 101 kPa, x2 = 0.75 | 0.89 mPa·s
323.15 K, 101.33 kPa, x1 = 0.04164 | 0.747 mPa·s
323.15 K, 101.33 kPa, x1 = 0.08905 | 0.924 mPa·s
323.15 K, 101.33 kPa, x1 = 0.1435 | 1.061 mPa·s
323.15 K, 101.33 kPa, x1 = 0.2068 | 1.152 mPa·s
323.15 K, 101.33 kPa, x1 = 0.235 | 1.157 mPa·s
323.15 K, 101.33 kPa, x1 = 0.2499 | 1.162 mPa·s
323.15 K, 101.33 kPa, x1 = 0.2652 | 1.177 mPa·s
323.15 K, 101.33 kPa, x1 = 0.2811 | 1.18 mPa·s
323.15 K, 101.33 kPa, x1 = 0.3697 | 1.162 mPa·s
323.15 K, 101.33 kPa, x1 = 0.4771 | 1.089 mPa·s
323.15 K, 101.33 kPa, x1 = 0.61 | 0.981 mPa·s
323.15 K, 101.33 kPa, x1 = 0.7787 | 0.866 mPa·s
323.15 K, 101.33 kPa, x2 = 0.0102 | 0.729 mPa·s

COCCOCCOCCOCCOC + O
viscosity [mPa·s], 101 kPa
Conditions | 298 K | 303.15 K | 308.15 K | 313.15 K | 318.15 K | 323.15 K
x1 = 0.00562 | – | 1.177 | 1.049 | 0.937 | 0.839 | 0.767
x1 = 0.0075 | 1.323 | – | – | – | – | –
x1 = 0.0142 | 1.533 | – | – | – | – | –
x1 = 0.02904 | – | 2.119 | 1.844 | 1.618 | 1.431 | 1.275
x1 = 0.0297 | 2.433 | – | – | – | – | –
x1 = 0.0419 | 3.198 | – | – | – | – | –
x1 = 0.04576 | – | 3.14 | 2.677 | 2.309 | 1.992 | 1.766
x1 = 0.0593 | 4.289 | – | – | – | – | –
x1 = 0.07654 | – | 4.235 | 3.566 | 3.043 | 2.621 | 2.273
x1 = 0.0784 | 5.24 | – | – | – | – | –
x1 = 0.1006 | – | 4.915 | 4.126 | 3.487 | 2.994 | 2.593
x1 = 0.1139 | 6.253 | – | – | – | – | –
x1 = 0.1272 | – | 5.245 | 4.392 | 3.729 | 3.181 | 2.758
x1 = 0.1398 | 6.469 | – | – | – | – | –
x1 = 0.1512 | – | 5.331 | 4.475 | 3.802 | 3.273 | 2.838
x1 = 0.1543 | 6.411 | – | – | – | – | –
x1 = 0.2009 | – | 5.151 | 4.371 | 3.744 | 3.243 | 2.839
x1 = 0.2493 | – | 4.865 | 4.154 | 3.6 | 3.128 | 2.76
x1 = 0.2986 | – | 4.539 | 3.909 | 3.397 | 2.982 | –
x1 = 0.3508 | – | 4.269 | 3.695 | 3.228 | 2.845 | 2.528
x1 = 0.4016 | – | 4.026 | 3.508 | 3.089 | 2.735 | 2.433
x1 = 0.5033 | – | 3.66 | 3.22 | 2.853 | 2.543 | 2.281
x1 = 0.5975 | – | 3.428 | 3.025 | 2.698 | 2.42 | 2.183
x1 = 0.7029 | – | 3.236 | 2.883 | 2.577 | 2.323 | –
x1 = 0.8018 | – | 3.113 | 2.78 | 2.497 | 2.257 | 2.047
x1 = 0.8532 | – | 3.066 | 2.744 | 2.467 | 2.231 | 2.029
x1 = 0.9025 | – | 3.019 | 2.704 | – | 2.203 | –
x1 = 0.9447 | – | 2.982 | 2.679 | 2.414 | 2.182 | 1.99
